Patent publication US4707491A, “Anticonvulsant γ-thiobutyrolactone derivatives” (Washington University, priority 1985, dated 1987)
Where two headings read alike, the source gives them in different places.

What was measured:
[1] = system: pentylenetetrazol seizures; experiment: Pentylenetetrazol Seizure Threshold Test; assay type: in vivo; settings: Mus musculus, mice
Description: See, for example, Krall et al., Epilepsia 19, 409-428 (1978).
(§1) Compounds were tested for anticonvulsant activity and toxicity in mice by the following tests.
Pentylenetetrazol Seizure Threshold Test
The animals are placed in isolation cages and observed for the next 30 min. for the presence or absence of a seizure. A threshold convulsion is defined as one episode of clonic spasms that persists for at least a 5-sec period.

[2] = system: maximal electroshock seizures; experiment: Maximal Electroshock Seizure Test; assay type: in vivo, mice; settings: for anti-MES activity: comparison of anticonvulsant profiles
Description: One recognized test which is frequently used for this purpose is to determine the capacity of the drug to modify the effects of maximal electric shock (MES) by inhibition of tonic hindlimb extension. See, for example, the test described by Swinyard and co-workers at J. Pharmacol. Exper. Therap. 106, 319-330 (1952).
as §1
Maximal Electroshock Seizure Test
At the time of peak effect of the test substance, a drop of 0.9% sodium chloride is applied to the eyes of each animal. Corneal electrodes are applied to the eyes, and an electrical stimulus of 50 mA is delivered for 0.2 sec. The animals are held by hand and released at the time of stimulation for observation of the seizure. Abolition of the hindleg tonic extension component is taken as the endpoint for this test.

[3] = Rotorod Test for Toxicity; settings: mouse, in vivo; mice; rotorod at 6 rpm, 10 min; at time of peak effect
Description: The rotorod test is a standard method used in mice to access neurotoxicity and is described, for example, by Krall et al., Epilepsia 19, 409-428 (1978).
as §1
Rotorod Test for Toxicity
This test is used in mice to assess neurotoxicity. Mice are placed on the rotorod, which rotates at 6 rpm, and tested for maintenance of their equilibrium for 10 min. All mice are pre-tested before test substance is given. At the time of peak effect of the test substance, mice are put back on the rotorod for 10 min. Neurological deficit (toxicity) is indicated by the inability of the animal to maintain its equilibrium for 10 min. on this rotating rod.

[4] = read-out: ED50 against (clonic) seizures produced by 85 mg/kg pentylenetetrazol, 85 mg/kg pentylenetetrazol IP, clonic (threshold) seizures

SMILES	ED50 [1, 4]	ED50 ([2]; Mus musculus, read-out: ED50 against maximal electroshock seizures (MES))	TD50 [3]	anti-MES activity [2]	ED50 ([1]; read-out: ED50 against clonic seizures produced by 100 mg/kg pentylenetetrazol, 100 mg/kg pentylenetetrazol IP, clonic seizures)	ED50 ([1]; read-out: ED50 against tonic seizures produced by 100 mg/kg pentylenetetrazol, 100 mg/kg pentylenetetrazol IP, tonic seizures)	protection against maximal electroshock seizures ([2]; mice, at doses up to 350 mg/kg)
CC(C)C1CCSC1=O (stereo not drawn) [α-isopropyl-γ-thiobutyrolactone]	137 mg/kg	240 mg/kg	278 mg/kg	–	–	–	–
CCC1(C)CC(=O)NC1=O (centres unmarked) [ethosuximide]	–	–	–	do not	–	–	–
CCC1(C)CCOC1=O (stereo not drawn) [α-EMBL, α-ethyl-α-methyl-γ-butyrolactone]	226 mg/kg	–	~350 mg/kg	do not	304 mg/kg	250 mg/kg	No protection
CCCC(CCC)C(=O)O [valproic acid]	–	–	–	have anti-MES activity	–	–	–
